Measurements as given in publication doi:10.1101/2025.06.05.658205v3, “AsCas12a Exhibits Intrinsic, DNA-Independent ATPase Activity” (biorxiv, 2025).

Target: T1, AsCas12a (Acidaminococcus sp. BV3L6, UniProt U2UMQ6)
T1 construct: gene cas12a; purified wild-type protein, no crRNA mentioned in assay
Experiment: radiometric TLC ATPase assay ([…] release)
Type: biochemical
Details: 200 µM cold ATP, 200 pM [γ-32P]ATP; 12 mM MgCl2, pH 7.5, 37 °C, 1 h; no DNA; labelled compound

T1 sequence (U2UMQ6 whole entry, looked up): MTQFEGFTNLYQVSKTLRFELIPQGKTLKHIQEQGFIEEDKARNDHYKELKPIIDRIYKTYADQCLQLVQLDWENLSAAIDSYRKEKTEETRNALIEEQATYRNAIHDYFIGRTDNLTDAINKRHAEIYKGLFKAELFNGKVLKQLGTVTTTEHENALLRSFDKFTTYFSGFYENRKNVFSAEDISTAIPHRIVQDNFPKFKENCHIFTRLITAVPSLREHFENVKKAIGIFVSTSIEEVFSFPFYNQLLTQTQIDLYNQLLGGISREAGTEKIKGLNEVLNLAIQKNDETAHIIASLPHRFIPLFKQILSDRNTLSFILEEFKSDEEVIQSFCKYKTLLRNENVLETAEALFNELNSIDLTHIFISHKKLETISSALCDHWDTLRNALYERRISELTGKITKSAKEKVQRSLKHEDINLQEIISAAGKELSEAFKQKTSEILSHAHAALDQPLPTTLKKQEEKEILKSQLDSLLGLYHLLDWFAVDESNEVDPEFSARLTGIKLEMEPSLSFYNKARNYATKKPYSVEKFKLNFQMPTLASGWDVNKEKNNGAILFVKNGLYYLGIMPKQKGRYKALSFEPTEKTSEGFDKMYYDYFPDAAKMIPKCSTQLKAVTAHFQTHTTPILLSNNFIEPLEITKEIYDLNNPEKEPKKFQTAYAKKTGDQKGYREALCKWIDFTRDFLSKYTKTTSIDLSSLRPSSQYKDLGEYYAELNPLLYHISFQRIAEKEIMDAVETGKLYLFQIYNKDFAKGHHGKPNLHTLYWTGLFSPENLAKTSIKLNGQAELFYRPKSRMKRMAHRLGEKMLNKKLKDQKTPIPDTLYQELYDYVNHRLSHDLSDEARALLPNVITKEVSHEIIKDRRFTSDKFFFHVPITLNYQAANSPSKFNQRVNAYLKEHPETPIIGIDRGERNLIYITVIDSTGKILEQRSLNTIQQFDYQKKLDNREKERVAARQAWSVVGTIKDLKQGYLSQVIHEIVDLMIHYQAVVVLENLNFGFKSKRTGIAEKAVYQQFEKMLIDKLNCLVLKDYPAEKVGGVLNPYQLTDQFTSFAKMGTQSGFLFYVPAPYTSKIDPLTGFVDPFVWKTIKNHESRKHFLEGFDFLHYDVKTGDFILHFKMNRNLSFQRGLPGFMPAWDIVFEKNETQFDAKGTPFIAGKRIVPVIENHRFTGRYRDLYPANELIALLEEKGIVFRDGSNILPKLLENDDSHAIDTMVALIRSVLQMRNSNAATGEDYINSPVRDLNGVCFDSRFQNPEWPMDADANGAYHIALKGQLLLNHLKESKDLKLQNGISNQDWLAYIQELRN

Nc1ncnc2c1ncn2[C@@H]1O[C@H](COP(=O)(O)OP(=O)(O)OP(=O)(O)O)[C@@H](O)[C@H]1O [ATP]
radiometric TLC ATPase assay (32Pi release): AsCas12a catalyzed ATP hydrolysis in a concentration and time-dependent manner
